Data from publication PMC10945556, “Design, Synthesis, and Antifungal Activity of 3-Substituted-2(5H)-Oxaboroles” (ACS Medicinal Chemistry Letters, 2024).
Values after ≈ are worked out from the molar mass of the structure shown.

What was measured:
T. mentagrophytes = assay: MIC, dose-dependent solid media assay; format: cell-based, Trichophyton mentagrophytes; conditions: Trichophyton mentagrophytes
P. chrysogenum = assay: MIC, dose-dependent solid media assay; format: cell-based, Penicillium chrysogenum; conditions: Penicillium chrysogenum
A. flavus = assay: MIC, dose-dependent solid media assay; format: cell-based, Aspergillus flavus; conditions: Aspergillus flavus
C. albicans = assay: MIC, microbroth dilution; format: cell-based, Candida albicans; conditions: Candida albicans
S. cerevisiae = assay: MIC, microbroth dilution; format: cell-based, Saccharomyces cerevisiae; conditions: Saccharomyces cerevisiae
B. cereus = assay: MIC, microbroth dilution; format: cell-based, Bacillus cereus; conditions: Bacillus cereus
[1] = tested on: Methicillin resistant Staphylococcus aureus; assay: MIC, microbroth dilution; format: cell-based; conditions: Staphylococcus aureus, S. aureus (MRSA)
P. aeruginosa = assay: MIC, microbroth dilution; format: cell-based, Pseudomonas aeruginosa; conditions: Pseudomonas aeruginosa
E. coli [2] = assay: MIC, microbroth dilution; format: cell-based, Escherichia coli; conditions: for MIC: Escherichia coli
[3] = tested on: rat myoblast cells (H9c2); assay: Cell viability assay against H9c2 cell line; format: cell-based; conditions: concentrations up to 100 μM, 24 h
Description: (§1) In general, very little growth inhibition was observed against either Gram-positive or Gram-negative bacterial pathogens. […] The SAR for the antibacterial is dissimilar to that observed for the antifungal properties.
(§2) Figure 3 (A) Cell viability assay against H9c2 cell line at 100 μM for 24 h (normalized to PBS no treatment), (B) Hemolytic assay at 50 and 100 μM for 1 h (normalized to triton X-100 positive control). Error bars in both graphs represent standard error of mean (SEM) of replicates (n = 3).

Hemolytic assay = format: cell-based; conditions: 50 and 100 μM for 1 h
Description: as §1, §2

E. coli [4] = assay: Growth inhibition screen in liquid medium; format: cell-based, Escherichia coli; conditions: screen at 50 and 12.5 μg/mL
Excerpt: These included four bacterial pathogens [Bacillus cereus (Gram-positive), Methicillin resistant Staphylococcus aureus (Gram-positive), Pseudomonas aeruginosa (Gram-negative), and Escherichia coli (Gram-negative)], a fungal pathogen (Candida albicans), and a yeast (Saccharomyces cerevisiae). […] Commercially available tavaborole, cycloheximide, and nystatin were also screened as benchmarks. […] In addition, the 3-substituted oxaboroles were screened in a dose-dependent manner on solid media against three spore-forming fungal pathogens: Trichophyton mentagrophytes, Penicillium chrysogenum, and Aspergillus flavus (Figures 2B and S152–S192). The compounds could not be screened for growth inhibition in liquid media against these pathogens due to clumping of the mycelia, which impeded the absorbance readings.

Structure (SMILES) | MIC (T. mentagrophytes) [µg/mL] | MIC (T. mentagrophytes; value in parentheses) [µM] | MIC (P. chrysogenum) [µg/mL] | MIC (P. chrysogenum; value in parentheses) [µM] | MIC (A. flavus) [µg/mL] | MIC (A. flavus; value in parentheses) [µM] | MIC (C. albicans) [µg/mL] | MIC (C. albicans; value in parentheses) [µM] | MIC (S. cerevisiae) [µg/mL] | MIC (S. cerevisiae; value in parentheses) [µM] | MIC (B. cereus) [µg/mL] | MIC (B. cereus; value in parentheses) [µM] | MIC [1] [µg/mL] | MIC ([1]; value in parentheses) [µM] | MIC (P. aeruginosa) [µg/mL] | MIC (P. aeruginosa; value in parentheses) [µM] | MIC (E. coli [2]; value in parentheses) [µM] | cytotoxic effects against rat myoblast cells (H9c2) [3] | hemolytic activity (Hemolytic assay) | growth inhibition of E. coli (E. coli [4]) | further results
OB1OCC=C1c1ccc(Br)cc1 [Compound 6h] | 33 ± 8 | 139 | 12.5 | 52.5 | 33 ± 8 | 139 | > 50 | > 210 | 12.5 | 52.5 | > 50 | > 210 | > 50 | > 210 | > 50 | > 210 | 88.2 | none | none possessed hemolytic activity | inhibited the growth | MIC EC (E. coli [2]): 21 ± 4 µg/mL (≈ 87.9 µM); MIC (E. coli [2]): 20 to 50 µg/mL
CCCc1ccc(C2=CCOB2O)cc1 [Compound 6x] | 50 | 248 | 12.5 | 61.9 | > 50 | > 248 | > 50 | > 248 | 10.4 ± 2 | 51.5 | > 50 | > 248 | > 50 | > 248 | > 50 | > 248 | 104 | none | none possessed hemolytic activity | inhibited the growth | MIC EC (E. coli [2]): 21 ± 4 µg/mL (≈ 104 µM); MIC (E. coli [2]): 20 to 50 µg/mL
Cc1ccc(C2=CCOB2O)cc1 [Compound 6t] | > 50 | > 287 | 21 ± 4 | 121 | > 50 | > 287 | > 50 | > 287 | 10.4 ± 2 | 59.8 | > 50 | > 287 | > 50 | > 287 | > 50 | > 287 | 241 | none | none possessed hemolytic activity | inhibited the growth | 
OB1OCC=C1c1cccs1 [Compound 6s] | > 50 | > 301 | 50 | 301 | > 50 | > 301 | > 50 | > 301 | 10 ± 2 | 60.2 | > 50 | > 301 | > 50 | > 301 | > 50 | > 301 | 253 |  |  | inhibited the growth | 
